Test results from PMC3813752 (PLoS ONE, 2013).
Entries after “also recorded” stand apart in the source; their conditions may differ. Read-outs that look alike come from different tables or passages of the source. Marks after values point to notes of the source that are not given here.

Tests used:
human CB1 receptor [1] = molecular target: T1, human CB1 receptor (Homo sapiens, UniProt P21554); test: biochemical; type: binding; settings: for Ki: membranes of CHO cells expressing human CB1, three independent experiments in duplicates, read-out: Ki CB1, heterologous competition vs. [3H]CP55,940; for inhibition at 10 µM: vs. [3H]CP55,940, read-out: % inhibition of radioligand binding at CB1
human GPR18 [2] = molecular target: T2, human GPR18 (Homo sapiens, UniProt Q14330); settings: for agonist effect on β-arrestin recruitment at GPR18: test compound 10 µM, related to effect of Δ9-THC 10 µM = 100%; for functional property at GPR18 (agonist/antagonist): in words
T2 sequence (Q14330 1-331): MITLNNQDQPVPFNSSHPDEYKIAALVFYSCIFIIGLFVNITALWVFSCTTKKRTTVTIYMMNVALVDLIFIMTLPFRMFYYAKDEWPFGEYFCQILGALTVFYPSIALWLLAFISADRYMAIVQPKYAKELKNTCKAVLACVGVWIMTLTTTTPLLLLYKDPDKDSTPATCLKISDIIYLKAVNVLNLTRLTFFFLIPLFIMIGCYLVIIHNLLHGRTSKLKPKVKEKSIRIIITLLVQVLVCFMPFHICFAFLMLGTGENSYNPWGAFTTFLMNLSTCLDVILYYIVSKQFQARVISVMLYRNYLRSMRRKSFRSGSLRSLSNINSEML

human GPR18 [3] = molecular target: T2, human GPR18; test: cell-based; settings: for inhibition at 10 µM: CHO, read-out: % inhibition of Δ9-THC (10 µM)-induced β-arrestin recruitment at GPR18, test compound at 10 µM; for IC50: GPR18 IC50, β-arrestin recruitment, antagonist mode vs. Δ9-THC (10 µM)
human GPR55 = human GPR55 (Homo sapiens, UniProt Q9Y2T6); test: β-arrestin recruitment assay (PathHunter), CHO cells expressing GPR55; settings: for inhibition at 10 µM: CHO; for IC50: antagonist mode vs. LPI (1 µM); for agonist effect on β-arrestin recruitment at GPR55: test compound 10 µM, related to effect of LPI 1 µM = 100%; for functional property at GPR55 (agonist/antagonist): in words
human CB1 receptor [4] = molecular target: T1, human CB1 receptor; test: cAMP accumulation assay, CHO cells expressing CB1; type: cell-based; settings: for efficacy CB1, cAMP accumulation assay: at 10 µM, compared to max. effect of full agonist CP55,940 (1 µM) = 100%
human CB2 receptor [5] = molecular target: T3, human CB2 receptor (Homo sapiens, UniProt P34972); test: cAMP accumulation assay, CHO cells expressing CB2; type: cell-based; settings: for efficacy CB2, cAMP accumulation assay: at 10 µM, compared to max. effect of full agonist CP55,940 (1 µM) = 100%; for functional property at CB2 (agonist/antagonist): in words, standard ligands partly from the literature
human CB2 receptor [6] = molecular target: T3, human CB2 receptor; test: Radioligand binding (heterologous competition) vs. [3H]CP55,940 at CB2
[7] = read-out: % inhibition of LPI (1 µM)-induced β-arrestin recruitment at GPR55, test compound at 10 µM
[8] = GPR55 IC50, β-arrestin recruitment
[9] = in words, standard ligands partly from the literature
[10] = read-out: % inhibition of LPI (1 µM)-induced β-arrestin recruitment at GPR55
[11] = membranes of CHO cells expressing human CB2, three independent experiments in duplicates, read-out: Ki CB2, heterologous competition vs. [3H]CP55,940

Chain of human GPR55 (Q9Y2T6 whole entry): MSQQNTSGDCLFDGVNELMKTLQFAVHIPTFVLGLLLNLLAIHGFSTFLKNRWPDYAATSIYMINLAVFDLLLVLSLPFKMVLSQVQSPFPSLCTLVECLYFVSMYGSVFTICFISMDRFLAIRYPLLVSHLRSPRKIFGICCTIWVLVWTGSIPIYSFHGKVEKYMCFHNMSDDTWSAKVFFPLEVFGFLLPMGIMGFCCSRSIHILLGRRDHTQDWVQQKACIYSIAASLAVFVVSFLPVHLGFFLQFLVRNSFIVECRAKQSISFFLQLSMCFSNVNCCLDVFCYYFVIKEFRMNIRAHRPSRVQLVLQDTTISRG
T3 sequence (P34972 whole entry): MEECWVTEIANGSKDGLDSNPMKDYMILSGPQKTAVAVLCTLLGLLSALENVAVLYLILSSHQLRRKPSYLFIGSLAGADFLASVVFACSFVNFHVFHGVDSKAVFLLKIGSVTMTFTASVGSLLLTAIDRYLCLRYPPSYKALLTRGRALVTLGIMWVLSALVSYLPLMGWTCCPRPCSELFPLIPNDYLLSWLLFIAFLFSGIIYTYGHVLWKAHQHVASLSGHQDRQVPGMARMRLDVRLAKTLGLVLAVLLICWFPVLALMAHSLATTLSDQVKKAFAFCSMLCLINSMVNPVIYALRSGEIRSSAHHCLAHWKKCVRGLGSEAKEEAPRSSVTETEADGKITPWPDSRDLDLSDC
T1 sequence (P21554 whole entry): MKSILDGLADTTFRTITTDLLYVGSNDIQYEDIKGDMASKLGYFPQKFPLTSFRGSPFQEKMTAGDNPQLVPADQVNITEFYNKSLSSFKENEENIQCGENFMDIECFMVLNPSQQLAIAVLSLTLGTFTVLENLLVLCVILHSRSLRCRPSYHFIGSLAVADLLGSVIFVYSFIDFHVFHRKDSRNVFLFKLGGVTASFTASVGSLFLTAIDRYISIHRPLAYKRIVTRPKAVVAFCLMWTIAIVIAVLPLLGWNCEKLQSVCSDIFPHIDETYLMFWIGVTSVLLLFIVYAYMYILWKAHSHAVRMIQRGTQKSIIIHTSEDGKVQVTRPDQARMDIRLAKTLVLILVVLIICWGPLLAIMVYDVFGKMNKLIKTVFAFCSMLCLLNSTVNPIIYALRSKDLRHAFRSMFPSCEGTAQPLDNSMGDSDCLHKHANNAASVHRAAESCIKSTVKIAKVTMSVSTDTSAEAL

| SMILES | Ki (human CB1 receptor [1]) | agonist effect on β-arrestin recruitment at GPR18 (human GPR18 [2]) | EC50 (human GPR18 [3]) | inhibition at 10 µM (human GPR18 [3]) | IC50 (human GPR18 [3]) | EC50 (human GPR55) | inhibition at 10 µM (human GPR55; [7]) | IC50 (human GPR55; [8]) | agonist effect on β-arrestin recruitment at GPR55 (human GPR55) | functional property at GPR18 (agonist/antagonist) (human GPR18 [2]) | functional property at GPR55 (agonist/antagonist) (human GPR55) | functional property at CB2 (agonist/antagonist) (human CB2 receptor [5]) | inhibition at 10 µM (human GPR55; [10]) | Ki (human CB2 receptor [6]; [11]) | other results |
| --- | --- | --- | --- | --- | --- | --- | --- | --- | --- | --- | --- | --- | --- | --- | --- |
| CCCCCCc1ccc(O)c(-c2cc(CCCC)ccc2O)c1 [Compound 65] | 2.6 ± 0.09 µM | 0% | > 10 µM | 116% | 11 ± 0.7 µM | > 10 µM | 15% | > 10 µM | 36% | – | – | – | – | – | efficacy CB1, cAMP accumulation assay (human CB1 receptor [4]): (95%)^b; efficacy CB2, cAMP accumulation assay (human CB2 receptor [5]): (49%)^b; Ki (human CB2 receptor [6]; vs. [3H]CP55,940, read-out: Ki CB2): 0.67 µM |
| COc1ccc(-c2oc3cc(OC)ccc3c2C(=O)c2ccc(C#N)cc2)cc1 [Compound 6, reference compound] | – | 0% | > 10 µM | 81% | 4.97 ± 1.51 µM | > 10 µM | 81% | 4.14 ± 1.05 µM | 0% | antagonist | antagonist | antagonist | – | – | functional property at CB1 (agonist/antagonist) (human CB1 receptor [4]; [9]): antagonist |
| COc1ccc(C(=O)c2c(C)n(CCN3CCOCC3)c3cc(I)ccc23)cc1 [Compound 7, reference compound] | – | 0% | > 10 µM | 52% | ~10 µM | > 10 µM | – | ≥ 10 µM | 22% | antagonist | antagonist | antagonist | 48% | – | functional property at CB1 (agonist/antagonist) (human CB1 receptor [4]; [9]): agonist |
| CCCCCCCc1ccc(O)c(-c2cc(CCC)ccc2O)c1 [Compound 62] | – | 0% | > 10 µM | 123% | 10.6 ± 0.4 µM | > 10 µM | 17% | > 10 µM | 5% | – | – | – | – | – | efficacy CB1, cAMP accumulation assay (human CB1 receptor [4]): (110%)^b; efficacy CB2, cAMP accumulation assay (human CB2 receptor [5]): (57%)^b |
| CCCCCc1ccc(O)c(-c2cc(CCCCC)ccc2O)c1 [Compound 44] | 3.13 ± 1.13 µM | 0% | > 10 µM | 128% | 12 ± 2.7 µM | > 10 µM | 2% | > 10 µM | 26% | – | – | – | – | 0.833 ± 0.123 µM | EC50 (human CB1 receptor [4]): 4.54 ± 0.83 µM; EC50 (human CB2 receptor [5]): 2.3 ± 0.71 µM |
| CCCCCc1cc(O)c2c(c1)OC(C)(C)[C@@H]1CCC(C)=C[C@@H]21 [Compound 1, Δ^9-tetrahydrocannabinol, reference compound] | – | – | – | 0% | > 10 µM | > 10 µM | – | – | 0% | agonist | antagonist | agonist | 65% | – | EC50 (human GPR18 [2]; read-out: GPR18 EC50, β-arrestin recruitment, agonist mode): 4.61 ± 0.5 µM; IC50 (human GPR55; read-out: GPR55 IC50, β-arrestin recruitment): 14.2 ± 5.4 µM |
| CCCCCCC(C)(C)c1ccc(C2CC(O)CCC2CCCO)c(O)c1 (single isomer, unassigned; (-)) [Compound 4, (-)-cis-3-[2-hydroxy-4-(1,1-dimethylheptyl)phenyl]-trans-4-(3-hydroxypropyl)cyclohexanol, reference compound] | – | 0% | > 10 µM | 188% | 5.99 ± 1.88 µM | > 10 µM | – | 1.61 ± 0.47 µM | 4% | inverse agonistic activity; also recorded: antagonist | antagonistic activity; also recorded: antagonist | agonist | 93% | – | functional property at CB1 (agonist/antagonist) (human CB1 receptor [4]): agonist |
| CCCc1ccc(O)c(-c2cc(CCC)ccc2O)c1 [Compound 12, tetrahydromagnolol] | – | 0% | > 10 µM | 64% | 30.9 ± 15.8 µM | > 10 µM | – | 13.2 ± 4 µM | 24% | antagonist | antagonist | agonist | 96% | – | functional property at CB1 (agonist/antagonist) (human CB1 receptor [4]; [9]): agonist |
| Cc1ccc(O)c(-c2cc(C)ccc2O)c1 [Compound 41] | > 1 µM | 20% | > 10 µM | 0% | > 10 µM | > 10 µM | 0% | > 10 µM | 30% | – | – | – | – | > 1 µM | inhibition at 10 µM (human CB1 receptor [1]): 23%; Ki (human CB2 receptor [6]; Ki CB2, heterologous competition vs. [3H]CP55,940, membranes of CHO cells expressing human CB2, three independent experiments in duplicates): > 0.01 µM; inhibition at 10 µM (human CB2 receptor [6]; at 10 µM, vs. [3H]CP55,940, read-out: % inhibition of radioligand binding at CB2): 30% |
| Cc1c(C(=O)NN2CCCCC2)nn(-c2ccc(Cl)cc2Cl)c1-c1ccc(Cl)cc1 [Compound 5, rimonabant, reference compound] | – | 0% | > 10 µM | 94% | – | – | – | > 10 µM | – | antagonist | agonist | antagonist | 0% | – | IC50 (human GPR18 [2]; read-out: GPR18 IC50, β-arrestin recruitment, antagonist mode vs. Δ9-THC (10 µM)): 10.1 ± 1.3 µM; EC50 (human GPR55; read-out: GPR55 EC50, β-arrestin recruitment, agonist mode): 2.01 ± 0.66 µM |
| CCCCc1ccc(O)c(-c2cc(C)ccc2O)c1 [Compound 51] | ~1 µM | 0% | > 10 µM | 44% | ~10 µM | > 10 µM | 0% | > 10 µM | 18% | – | – | – | – | 1.69 ± 0.53 µM | inhibition at 10 µM (human CB1 receptor [1]): 44% |
| CCCc1ccc(O)c(-c2cc(CC)ccc2O)c1 [Compound 54] | ~1 µM | 0% | > 10 µM | 67% | 10.5 ± 0.9 µM | > 10 µM | 19% | > 10 µM | 0% | – | – | – | – | 0.856 ± 0.367 µM | inhibition at 10 µM (human CB1 receptor [1]): 43% |
